Values quoted from earlier work in PMC12042267, “Expanding the Family of Monosubstituted 15-Membered Pyridine-Based Macrocyclic Ligands for Mn(II) Complexation in the Context of MRI” (Inorganic Chemistry, 2025).
Like-named read-outs stand apart in the source and are kept apart here. Marks after values point to notes of the source that are not given here.

What was measured:
[1] = cited from earlier work
[2] = cited from earlier work; remark: listed apart in the source
[3] = Ca(II), cited from earlier work
[4] = Mn(II) complex, cited from earlier work; for dissociation half-life t1/2: calculated for pH 7.4
[5] = Cu(II), cited from earlier work
[6] = Zn(II), cited from earlier work
[7] = cited from earlier work; for r1 (relaxivity): 20 MHz
[8] = cited from earlier work; remark: listed apart in the source
[9] = Mn(II), I = 0.15 M NaCl, 25 °C ref 29
[10] = Mn(II), I = 0.15 M NaCl, 25 °C ref 22

Q: Which results are given for `O=C(O)CN1CCNCc2cccc(n2)CN(CC(=O)O)CC1` [3,6-PC2A]?
A: log KML ([1]; Mn(II), I = 0.15 M NaCl, 25 °C ref 21): 15.53; log KHML ([1]; Mn(II), I = 0.15 M NaCl, 25 °C, log KMnHL in Table 5 ref 21): 3.06; pMn ([1]; pH 7.4, cMn = clig = 10^–5 M ref 21): 8.09; log K1^H ([2]; 1.0 M NaCl ref 21): 10.31; log K2^H ([2]; 1.0 M NaCl ref 21): 8.59; log K3^H ([2]; 1.0 M NaCl ref 21): 3.92; log K4^H ([2]; 1.0 M NaCl ref 21): 1.56; log K1^H ([2]; I = 0.15 M NaCl, 25 °C ref 21): 10.72; log K2^H ([2]; I = 0.15 M NaCl, 25 °C ref 21): 8.37; log K3^H ([2]; I = 0.15 M NaCl, 25 °C ref 21): 3.81; log K4^H ([2]; I = 0.15 M NaCl, 25 °C ref 21): 1.26; log KHML ([3]; I = 0.15 M NaCl, 25 °C ref 21): 5.27; log KML ([3]; I = 0.15 M NaCl, 25 °C ref 21): 9.57; k1 ([4]; Cu(II) transmetalation ref 21): 70 ± 1 M^–1 s^–1; k2 ([4]; Cu(II) transmetalation ref 21): (1.5 ± 0.4) × 10^5 M^–2 s^–1; k3 ([4]; Cu(II) transmetalation ref 21): (2.6 ± 0.7) × 10^–2 M^–1 s^–1; dissociation half-life t1/2 ([4]; Cu(II) ref 21): 2.63 days; log KHML ([5]; I = 0.15 M NaCl, 25 °C ref 21): 2.37; log KML ([5]; I = 0.15 M NaCl, 25 °C ref 21): 24.09; log KHML ([6]; I = 0.15 M NaCl, 25 °C ref 21): 2.36; log KML ([6]; I = 0.15 M NaCl, 25 °C ref 21): 20.37

Q: With `c1cc2nc(c1)CNCCOc1ccccc1OCCNC2` [15-pyN3O2Ph] as the compound, how does the “log KML” value [1, 9] read?
A: 5.62

Q: And the “log KML(OH)” value [1, 9]?
A: -10.50

Q: And the pMn ([1]; pH 7.4, cMn = clig = 10^–5 M ref 30)?
A: 5.04^a

Q: And the “log K1^H” value ([2]; I = 0.15 M NaCl, 25 °C ref 29)?
A: 8.53

Q: What about the “log K2^H” value ([2]; I = 0.15 M NaCl, 25 °C ref 29) of the same compound?
A: 7.63

Q: What about the “log KML” value ([3]; I = 0.15 M NaCl, 25 °C ref 29) of the same compound?
A: 1.85

Q: What about the “log KML” value ([5]; I = 0.15 M NaCl, 25 °C ref 29) of the same compound?
A: 13.97

Q: And the “log KML(OH)” value ([5]; I = 0.15 M NaCl, 25 °C ref 29)?
A: -8.95

Q: And the “log KML” value ([6]; I = 0.15 M NaCl, 25 °C ref 29)?
A: 7.70

Q: And the “log KML(OH)” value ([6]; I = 0.15 M NaCl, 25 °C ref 29)?
A: -9.62

Q: What does the source list for `c1cc2nc(c1)CNCCOCCOCCNC2` [15-pyN3O2]?
A: log KML ([1]; Mn(II), 0.1 M NMe4Cl ref 28): 7.18; log KML(OH) ([1]; Mn(II), 0.1 M NMe4Cl ref 28): -11.69; pMn ([1]; pH 7.4, cMn = clig = 10^–5 M ref 28): 5.28; log K1^H ([2]; 0.1 M NMe4Cl ref 28): 8.82; log K2^H ([2]; 0.1 M NMe4Cl ref 28): 7.80; log KML ([3]; 0.1 M NMe4Cl ref 28): 2.04; log KML(OH) ([3]; 0.1 M NMe4Cl ref 28): -11.92; log KML ([5]; 0.1 M NMe4Cl ref 28): 13.91; log KML(OH) ([5]; 0.1 M NMe4Cl ref 28): -8.34; log KML(OH)2 ([5]; 0.1 M NMe4Cl ref 28): -12.57; log KML ([6]; 0.1 M NMe4Cl ref 28): 8.58; log KML(OH) ([6]; 0.1 M NMe4Cl ref 28): -10.31

Q: For `O.O=C([O-])CN1CCOCCN(CC(=O)[O-])Cc2cccc(n2)C1.[Mn+2]` [Mn(3,9-OPC2A)], which r1p298 ([7]; determined at pH 7.4 ref 26) is on record?
A: 3.09 mM^–1 s^–1

Q: And the k0 ([4]; Cu(II) transmetalation ref 26)?
A: (8.6 ± 1.1) × 10^–6 s^–1

Q: What about the “kex^298” value [8] of the same compound?
A: 5.3 ± 0.4 10^7 s^–1

Q: And the “ΔH^‡” value [8]?
A: 28.5 ± 1.7 kJ mol^–1

Q: With `O.O.[Mn+2].c1cc2nc(c1)CNCCOc1ccccc1OCCNC2` [Mn(15-pyN3O2Ph)] as the compound, how does the “r1 (relaxivity)” value ([7]; 25 °C, 0.47 T ref 29) read?
A: 5.16/– mM^–1 s^–1

Q: What about the AO/ℏ [8] of the same compound?
A: 43 10^6 rad s^–1

Q: And the “kex^298” value [8]?
A: 0.64 10^7 s^–1

Q: And the “ΔH^‡” value [8]?
A: 34.0 kJ mol^–1

Q: What about the “ΔS^‡” value [8] of the same compound?
A: –1.0 J mol^–1K^–1

Q: Which “r1 (relaxivity)” value ([7]; 25 °C, 0.47 T ref 28) does the source give for `O.O.[Mn+2].c1cc2nc(c1)CNCCNCCNCCNC2` [Mn(15-pyN5)] here?
A: 3.56 mM^–1 s^–1

Q: And the “kex^298” value [8]?
A: 6.9 ± 0.7 10^7 s^–1

Q: And the “ΔH^‡” value [8]?
A: 37.7 ± 4 kJ mol^–1

Q: For `O.O=C([O-])CN1CCOCCOCCNCc2cccc(n2)C1.[Mn+2]` [MnL1], which “r1 (relaxivity)” value ([7]; 25 °C, 0.47 T ref 30) is on record?
A: 2.45 mM^–1 s^–1

Q: And the “r1 (relaxivity)” value ([7]; 37 °C, 0.47 T ref 30)?
A: 2.08 mM^–1 s^–1

Q: And the AO/ℏ [8]?
A: 38.6 10^6 rad s^–1

Q: What about the ErH [8] of the same compound?
A: 15.0 ± 0.5 kJ mol^–1

Q: What about the “kex^298” value [8] of the same compound?
A: 0.45 ± 0.02 10^7 s^–1

Q: What about the “ΔH^‡” value [8] of the same compound?
A: 28.1 ± 2.1 kJ mol^–1

Q: What about the “ΔS^‡” value [8] of the same compound?
A: –23 ± 6 J mol^–1K^–1

Q: And the “Δ^2” value [8]?
A: 160 ± 10 10^18 s^–2

Q: What about the “τrH^298” value [8] of the same compound?
A: 35 ± 5 ps

Q: What about the “τv^298” value [8] of the same compound?
A: 8 ± 1 ps

Q: With `O=P(O)(O)CN1CCNCc2cccc(n2)CNCC1` [PC1P] as the compound, how does the “log KML” value ([1]; Mn(II), 0.1 M NMe4Cl ref 20) read?
A: 14.06

Q: And the “log KML(OH)” value ([1]; Mn(II), 0.1 M NMe4Cl ref 20)?
A: -11.97

Q: What about the “log KHML” value ([1]; Mn(II), 0.1 M NMe4Cl, log KMnHL in Table 5 ref 20) of the same compound?
A: 5.35

Q: And the pMn ([1]; pH 7.4, cMn = clig = 10^–5 M ref 20)?
A: 8.30

Q: What about the “log K1^H” value ([2]; 0.1 M NMe4Cl ref 20) of the same compound?
A: 11.84

Q: What about the “log K2^H” value ([2]; 0.1 M NMe4Cl ref 20) of the same compound?
A: 9.64

Q: And the “log K3^H” value ([2]; 0.1 M NMe4Cl ref 20)?
A: 6.23

Q: What about the “log K4^H” value ([2]; 0.1 M NMe4Cl ref 20) of the same compound?
A: 0.99

Q: What about the “log KML” value ([3]; 0.1 M NMe4Cl ref 20) of the same compound?
A: 6.85

Q: What about the “log KHML” value ([5]; 0.1 M NMe4Cl ref 20) of the same compound?
A: 4.89

Q: What about the “log KML” value ([5]; 0.1 M NMe4Cl ref 20) of the same compound?
A: 22.63

Q: And the “log KHML” value ([6]; 0.1 M NMe4Cl ref 20)?
A: 5.19

Q: And the “log KML” value ([6]; 0.1 M NMe4Cl ref 20)?
A: 19.66

Q: What about the “log KML(OH)” value ([6]; 0.1 M NMe4Cl ref 20) of the same compound?
A: 12.33

Q: For `NCCN1CCN(CC(=O)O)Cc2cccc(n2)CN(CC(=O)O)CC1` [PC2A-EA], which “log KH2ML” value [1, 10] is on record?
A: 2.50

Q: What about the “log KML” value [1, 10] of the same compound?
A: 19.01

Q: And the “log KHML” value ([1]; Mn(II), I = 0.15 M NaCl, 25 °C, log KMnHL in Table 5 ref 22)?
A: 6.88

Q: What about the pMn ([1]; pH 7.4, cMn = clig = 10^–5 M ref 22) of the same compound?
A: 9.27

Q: What about the “log K1^H” value ([2]; I = 0.15 M NaCl, 25 °C ref 22) of the same compound?
A: 11.34

Q: And the “log K2^H” value ([2]; I = 0.15 M NaCl, 25 °C ref 22)?
A: 8.93

Q: And the “log K3^H” value ([2]; I = 0.15 M NaCl, 25 °C ref 22)?
A: 6.91

Q: And the “log K4^H” value ([2]; I = 0.15 M NaCl, 25 °C ref 22)?
A: 1.97

Q: What about the k1 ([4]; Cu(II) transmetalation ref 22) of the same compound?
A: 0.6 M^–1 s^–1

Q: And the “dissociation half-life t1/2” value ([4]; Cu(II) ref 22)?
A: 333 days

Q: Which “r1 characteristic of free hexaaqua Mn(II)” value ([7]; 1.41 T, 60 MHz, 25 °C ref 46) does the source give for `O.O.O.O.O.O.[Mn+2]` [[Mn(H2O)6]^2+] here?
A: 6.7 mM^–1 s^–1

Q: And the “r1 (relaxivity)” value ([7]; 25 °C, 0.47 T ref 54)?
A: 8.36/– mM^–1 s^–1

Q: What about the AO/ℏ [8] of the same compound?
A: 33.3 10^6 rad s^–1

Q: What about the “kex^298” value [8] of the same compound?
A: 2.1 10^7 s^–1

Q: What about the “ΔH^‡” value [8] of the same compound?
A: 32.9 kJ mol^–1

Q: What about the “ΔS^‡” value [8] of the same compound?
A: +5.7 J mol^–1K^–1

Q: What about the “Δ^2” value [8] of the same compound?
A: 5.6 10^18 s^–2

Q: And the “τrH^298” value [8]?
A: 30 ps

Q: And the “τv^298” value [8]?
A: 3.3 ps

Q: Which r1p298 ([7]; determined at pH 7.4 ref 20) does the source give for `O.O=C([O-])CN1CCNCc2cccc(n2)CNCC1.[Mn+2]` [[Mn(PC1A)(H2O)]^+] here?
A: 2.39 mM^–1 s^–1

Q: What about the “kex^298” value [8] of the same compound?
A: 303 ± 19 10^7 s^–1

Q: What about the “ΔH^‡” value [8] of the same compound?
A: 13.0 ± 1.6 kJ mol^–1

Q: What does the source list for `O.O=P([O-])([O-])CN1CCNCc2cccc(n2)CNCC1.[Mn+2]` [[Mn(PC1P)(H2O)]]?
A: r1p298 ([7]; determined at pH 7.4 ref 20): 2.84 mM^–1 s^–1; kex^298 [8]: 177 ± 9 10^7 s^–1; ΔH^‡ [8]: 14.0 ± 1.2 kJ mol^–1

Q: Which r1p298 ([7]; determined at pH 7.4 ref 29) does the source give for `O.O=C([O-])CN1CCN(Cc2ccc(-c3ccccc3)cc2)CCN(CC(=O)[O-])Cc2cccc(n2)C1.[Mn+2]` [[Mn(PC2A-BP)(H2O)]] here?
A: 4.96 mM^–1 s^–1

Q: And the r1p298 ([7]; measured in the presence of HSA ref 55)?
A: 35.7 mM^–1 s^–1

Q: And the “kex^298” value ([8]; Table 7, footnote h ref 29)?
A: 6.3 ± 0.2 10^7 s^–1

Q: And the “ΔH^‡” value ([8]; Table 7, footnote h ref 29)?
A: 35.7 ± 0.1 kJ mol^–1

Q: With `NCCN1CCN(CC(=O)[O-])Cc2cccc(n2)CN(CC(=O)[O-])CC1.O.[Mn+2]` [[Mn(PC2A-EA)(H2O)]] as the compound, how does the r1p298 ([7]; 298 K and 0.47 T, pH 6.0 ref 22) read?
A: 2.1 mM^–1 s^–1

Q: What about the r1p298 ([7]; 298 K and 0.47 T, pH 7.4 ref 22) of the same compound?
A: 3.5 mM^–1 s^–1

Q: What about the “kex^298” value [8] of the same compound?
A: 4.0 ± 0.2 10^7 s^–1
